Test results published in patent US4711883A, “Substituted 3-(4-phenyl-1-piperazinyl)alkylquinazolin-2,4-(1H,3H) diones, methods of preparation, compositions and method of use” (Ortho Pharmaceutical Corporation, priority 1985, dated 1987).
Where a name gives a salt, the structure may show the parent alone. Read-outs that look alike come from different tables or passages of the source.

Tests used:
α1 -adrenergic = α1 -adrenergic blockade: inhibition of phenylephrine-induced increases in diastolic blood pressure in the anesthetized dog; type: in vivo; details: for Percent Inhibition of Phenylephrin-Induced Pressor Responses: dog
Description: The α1 -adrenergic blockade: inhibition of phenylephrine-inducedincreases in diastolic blood pressure in the anesthetized dog was determined according to the method set forth in the following literature reference:
Arunlakshana, O, and Schild, H. O. (1959). Some Quantitative Uses of Drug Antagonists. Br. J. Pharmac. Chemother., 14:48-58.
The procedure is as follows:
Dogs are anesthetized and bilaterally vagotomized. A femoral artery and vein are cannulated for detection of diastolic blood pressure and drug administration, respectively. Percent inhibition of alpha adrenergic receptor antagonism is quantitiated by determining the dose-response (increase in diastolic pressure) relationship of phenylephrine before and after various doses of the antagonist. Statistical analysis of percent inhibition is calculated by use of the variance component estimation test. In addition, the Dose Ratio (DR20) may be calculated for potency comparisons and is defined as the dose of antagonist required to produce an agonist dose ratio of 20.

[1] = test system: spontaneously hypertensive rats (SHR); experiment: antihypertensive evaluation, systolic blood pressure, single oral dose, conscious SHR (tail cuff); type: in vivo
Description: (§1) The percent recovery is calculated by dividing the maximum decrease in mean arterial blood pressure (mm Hg) caused by tilt into the amount of rise in blood pressure at 15 seconds after initiating tilt. The antihypertensive as well as teh alpha1 -adrenergic blocking properties of the novel quinazolinedione piperazines were evaluated and set forth in Table 2.
The antihypertensive evaluation followed the following procedure:
Adult male spontaneously hypertensive rats (SHR) were placed in restrainers in a chamber warmed to 32° C. A standard indirect method employing a pneumatic pulse transducer and inflatable tail cuff was used to measure systolic blood pressure (SBP) in the conscious state. After baseline SBP were recorded, groups of 4 SHR received a single oral dose of drug or vehicle (0.5% methylcellulose) administered with a gavage tube. SBP's were obtained at 1/2, 1, 2, 3 and 4 hours post treatment. Changes in SBP's were statistically compared to the vehicle effect using Students t test, at p ε0.05.

histamine = experiment: autonomic tests: histamine blood pressure responses; type: in vivo; details: dogs
acetylcholine = experiment: autonomic tests: acetylcholine blood pressure responses; type: in vivo; details: dogs
[2] = bioavailability comparison, MABP in conscious cannulated SHR (i.v. and oral); type: in vivo, spontaneously hypertensive rats (SHR); details: rat, in vivo; SHR; small numbers (close to unity) indicate good bioavailability; read-out: Ratio P.O./I.V. (bioavailability ratio)
Description: (§2) The bioavailability comparison was determined in conscious direct cannulated spontaneously hypertensive rats. Briefly, the SHRs were anesthetized with ether and a carotid arterial catheter was inserted for measurement of arterial blood pressure while a jugular catheter was inserted for i.v. drug administration. For oral dosing, a catheter was also passed via the esophagus into the stomach. All catheters were exteriorized at the nape of the neck and animals were placed in restrainers and allowed to recover from surgery. Blood pressure was continuously recorded. Drugs were dissolved in 5% dextrose in water and administered as a bolus at time zero. Bioavailability results are presented in Table 3. | (a) I.V. bolus dose that lowers MABP in conscious SHR by 10%. | (b) Oral gavage dose that lowers MABP in conscious cannulated SHR by 10%. | (c) Bioavailability ratio with small numbers (close to unity) indicating | good bioavailability.

[3] = test system: spontaneously hypertensive rats; experiment: as above; type: in vivo, spontaneously hypertensive rats (SHR); details: for ED10: Rattus norvegicus
Description: as §2

[4] = test system: tilt reflex recovery response; parameters: species or system mongrel dogs; details: dog, in vivo
Description: as §1, with “The tilt reflex recovery response is determined as follows: Adult mongrel dogs of either sex are anesthetized with pentobarbital sodium, secured to a tilt table and surgically prepared for measurement of blood pressure and heart rate. Animals are tilted and the percent recovery of the tilt response in the blood pressure is quantitated. The percent” for “The percent”

[5] = iv, conscious SHR, I.V. bolus, read-out: I.V. E.D.-10% (I.V. bolus dose that lowers MABP by 10%)
[6] = conscious cannulated SHR, oral gavage, read-out: P.O. E.D.-10% (oral gavage dose that lowers MABP by 10%)

SMILES	Peak Change in Systolic Blood Pressure ([1]; 0.5 mg/kg PO) [mm Hg]	antihistaminic effect (inhibition of histamine blood pressure responses) (histamine)	anticholinergic effect (inhibition of acetylcholine blood pressure responses) (acetylcholine)	selectivity ratio [2]	ED10 [3, 5] [mg/kg]	ED10 [3, 6] [mg/kg]	Peak Change in Systolic Blood Pressure ([1]; 0.1 mg/kg PO) [mm Hg]	inhibition of the tilt reflex recovery response [4]	also measured
COc1ccccc1N1CCN(CCn2c(=O)[nH]c3c(Cl)cc(OC)c(OC)c3c2=O)CC1 [B, 8-chloro-3-{2-[4-(2-methoxyphenyl)-1-piperazinyl]ethyl}-5,6-dimethoxyquinazolin-2,4-(1H,3H)-dione]									Percent Inhibition of Phenylephrin-Induced Pressor Responses (α1 -adrenergic; 0.03 mg/kg IV): 60%; Percent Inhibition of Phenylephrin-Induced Pressor Responses (α1 -adrenergic; 0.2 mg/kg IV): 93%; Peak Change in Systolic Blood Pressure ([1]; 10 mg/kg PO): -72 mm Hg
COc1cc2[nH]c(=O)n(CCN3CCN(c4ccccc4OC)CC3)c(=O)c2cc1OC [C, 6,7-dimethoxy-3-{2-[4-(2-methoxyphenyl)-1-piperazinyl]ethyl}-quinazolin-2,4-(1H,3H)dione]	-69								Percent Inhibition of Phenylephrin-Induced Pressor Responses (α1 -adrenergic; 0.1 mg/kg IV): 95%
COc1ccccc1N1CCN(CCn2c(=O)[nH]c3ccc(OC)c(OC)c3c2=O)CC1 [Compound A, 3-{2-[4-(2-Methoxyphenyl)-1-piperazinyl]ethyl}-5,6-dimethoxyquinazolin-2,4-(1H,3H)dione monohydrobromide]	-85	almost no antihistaminic or anticholinergic effect	almost no antihistaminic or anticholinergic effect	38.9	1.8	70	-58	37%±12	DR20 (dose of antagonist required to produce an agonist dose ratio of 20) (α1 -adrenergic; anesthetized dog, IV, phenylephrine): 0.0203 mg/kg; Percent Inhibition of Phenylephrin-Induced Pressor Responses (α1 -adrenergic; 0.0203 (DR20) mg/kg IV): 100%; bioavailability profile (in words) ([3]; oral/i.v. ratios compared with prior art): unexpected superior bioavailability; oral hypotensive / antihypertensive activity (in words) ([1]; oral): orally effective antihypertensive profile
COc1ccccc1N1CCN(CCn2c(=O)[nH]c3ccccc3c2=O)CC1 [Compound Z, reference compound]		inhibits histamine and acetylcholine blood pressure responses	inhibits histamine and acetylcholine blood pressure responses	740	0.5	370	-40	83%±8	Percent Inhibition of Phenylephrin-Induced Pressor Responses (α1 -adrenergic; 0.010 mg/kg IV): 100%
Br.COc1ccccc1N1CCN(CCn2c(=O)[nH]c3ccc(O)c(O)c3c2=O)CC1.O [D, 5,6-Dihydroxy-3-{2-[4-(2-methoxyphenyl)-1-piperazinyl]ethyl}-quinazolin-2,4(1H,3H)-dione monohydrobromide monohydrate]							-60		Percent Inhibition of Phenylephrin-Induced Pressor Responses (α1 -adrenergic; 0.0303 mg/kg IV): 89%; Peak Change in Systolic Blood Pressure ([1]; 0.05 mg/kg PO): -58 mm Hg
COc1ccc(N2CCN(CCn3c(=O)[nH]c4ccc(OC)c(OC)c4c3=O)CC2)cc1 [E]									Percent Inhibition of Phenylephrin-Induced Pressor Responses (α1 -adrenergic; 1.0 mg/kg IV): 80%; Peak Change in Systolic Blood Pressure ([1]; 20 mg/kg PO): -50 mm Hg
